Source: ChEMBL document CHEMBL1201862, “PubChem BioAssay data set” (2004)
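Cultured in 96-well plates, cells were exposed to test compound for 48 hours across five concentrations. Here, GI50 denotes the concentration required for 50% inhibition of growth.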 Active and inactive are the calls of the source. Rule as the data show it: active = GI50 up to about 1.1 µM and inactive = higher.

What was measured:
Experiment in all cases: NCI anticancer screen, dose series, 48 h
[1] = system: T47D
[2] = system: M14
[3] = system: SK-MEL-2
[4] = system: HOP-92
[5] = system: RPMI-8226
[6] = system: UACC-62
[7] = system: A549
[8] = system: TK-10
[9] = system: IGROV-1
[10] = system: SNB-19
[11] = system: HCT-116
[12] = system: OVCAR-4
[13] = system: NCI-H226
[14] = system: 786-0
[15] = system: UO-31
[16] = system: SW-620
[17] = system: CAKI-1
[18] = system: NCI/ADR-RES
[19] = system: RXF 393
[20] = system: Hs-578T

Row | SMILES | GI50 [1] | GI50 [2] | GI50 [3] | GI50 [4] | GI50 [5] | GI50 [6] | GI50 [7] | GI50 [8] | GI50 [9] | GI50 [10] | GI50 [11] | GI50 [12] | GI50 [13] | GI50 [14] | GI50 [15] | GI50 [16] | GI50 [17] | GI50 [18] | GI50 [19] | GI50 [20]
1 | C[n+]1cc2cc(O)c(O)cc2c2ccc3cc(O)c(O)cc3c21.c1ccncc1 | 5.86 µM (inactive) | 2.18 µM (inactive) | 3.05 µM (inactive) | 2.31 µM (inactive) | 5.4 µM (inactive) | 1.75 µM (inactive) | 4.05 µM (inactive) | 4.01 µM (inactive) | 2.02 µM (inactive) | 1.49 µM (inactive) | 1.4 µM (inactive) | 2.88 µM (inactive) | 4.86 µM (inactive) | 2.03 µM (inactive) | 0.982 µM (active) | 3.51 µM (inactive) | 3.05 µM (inactive) | 2.3 µM (inactive) | 2.07 µM (inactive) | 
2 | CN(C)c1ccc(/C=C2\C[C@H]3[C@@H]4CC=C5C[C@@H](O)CC[C@]5(C)[C@H]4CC[C@]3(C)C2=O)cc1 | 20.3 µM (inactive) | 16.6 µM (inactive) | 19.7 µM (inactive) |  | 66.8 µM (inactive) | 17.4 µM (inactive) | 19.9 µM (inactive) | 20.3 µM (inactive) | 18 µM (inactive) | 17.1 µM (inactive) | 29.2 µM (inactive) | 18.1 µM (inactive) | 20 µM (inactive) | 16.3 µM (inactive) | 4.55 µM (inactive) | 30.2 µM (inactive) |  | 19.1 µM (inactive) | 19.7 µM (inactive) | 
3 | CCOC(=O)C1NCCc2c1[nH]c1ccccc21 (stereo not given) | > 10 µM (inactive) | > 10 µM (inactive) |  | > 10 µM (inactive) | > 10 µM (inactive) | > 10 µM (inactive) | > 10 µM (inactive) | > 10 µM (inactive) | > 10 µM (inactive) |  |  | > 10 µM (inactive) |  | > 10 µM (inactive) |  | > 10 µM (inactive) | > 10 µM (inactive) |  | > 10 µM (inactive) | 
4 | CC(C)c1cccc(=O)c(O)c1 |  | 2.03 µM (inactive) | 5.68 µM (inactive) | 1.75 µM (inactive) | 2.14 µM (inactive) | 2.67 µM (inactive) | 2.83 µM (inactive) | 1.25 µM (inactive) | 7.8 µM (inactive) | 7.24 µM (inactive) | 1.72 µM (inactive) | 2.56 µM (inactive) | 6.32 µM (inactive) | 3.4 µM (inactive) | 3.94 µM (inactive) | 1.79 µM (inactive) | 1.64 µM (inactive) |  | 0.299 µM (active) | 
5 | O=C1CCCC2=C1CC1=C(CCCC1=O)N2c1ccc([N+](=O)[O-])cc1 |  | > 100 µM (inactive) |  |  | > 100 µM (inactive) | > 100 µM (inactive) | > 100 µM (inactive) | > 100 µM (inactive) | > 100 µM (inactive) | > 100 µM (inactive) |  | > 100 µM (inactive) | > 100 µM (inactive) | > 100 µM (inactive) | > 100 µM (inactive) | > 100 µM (inactive) | > 100 µM (inactive) | > 100 µM (inactive) | > 100 µM (inactive) | > 100 µM (inactive)
6 | N/C(=N\O)N/N=C/c1cccc(F)c1 |  | 21.2 µM (inactive) | 67.8 µM (inactive) | 42.9 µM (inactive) | 39 µM (inactive) | 16.8 µM (inactive) | 31.7 µM (inactive) | 66.5 µM (inactive) | 47.9 µM (inactive) | > 100 µM (inactive) | 41.6 µM (inactive) | 85.9 µM (inactive) | 21 µM (inactive) | 30.4 µM (inactive) | 28.3 µM (inactive) | 75.2 µM (inactive) | 27.7 µM (inactive) |  | 24.8 µM (inactive) | 
7 | CC(=O)NNC(=S)N/C=C1/C(=O)C=C(C)OC1=O | > 100 µM (inactive) | > 100 µM (inactive) | > 100 µM (inactive) | > 100 µM (inactive) |  |  | > 100 µM (inactive) | > 100 µM (inactive) | > 100 µM (inactive) | > 100 µM (inactive) | > 100 µM (inactive) | > 100 µM (inactive) | > 100 µM (inactive) | > 100 µM (inactive) | > 100 µM (inactive) | > 100 µM (inactive) | > 100 µM (inactive) | > 100 µM (inactive) |  | 
